Source: patent US20210053957A1, “HERBICIDAL COMPOUNDS” (SYNGENTA PARTICIPATIONS AG, priority 2018, published 2021)

Experiments:
Experiment in all cases: Post-emergence efficacy, glasshouse spray test
Type in all cases: in vivo
[1] = tested on: Digitaria sanguinalis (DIGSA); details: Digitaria sanguinalis, post-emergence, 312 h; Application Rate 500 g/Ha; evaluated after 13 days; read-out: Control of weed species after post-emergence application, DIGSA (100=total damage to plant; 0=no damage to plant)
How it was run: (§1)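 Sow in standard soil; grow 14 d at 24/16° C, 14 h light, 65% humidity; spray aqueous dilution of IF50 formulation; return to glasshouse, water twice daily; score injury 0–100 at day 13.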

[2] = tested on: Setaia fabei (SETFA); details: Setaria faberi, post-emergence, 312 h; Application Rate 500 g/Ha; evaluated after 13 days; read-out: Control of weed species after post-emergence application, SETFA (100=total damage to plant; 0=no damage to plant)
How it was run: as §1

[3] = tested on: Euphorbia heterophylla (EPHHL); details: Euphorbia heterophylla, post-emergence, 312 h; Application Rate 500 g/Ha; evaluated after 13 days; read-out: Control of weed species after post-emergence application, EPHHL (100=total damage to plant; 0=no damage to plant)
How it was run: as §1

[4] = tested on: Ipomoea hederacea (IPOHE); details: Ipomoea hederacea, post-emergence, 312 h; Application Rate 500 g/Ha; evaluated after 13 days; read-out: Control of weed species after post-emergence application, IPOHE (100=total damage to plant; 0=no damage to plant)
How it was run: as §1

[5] = tested on: Lolium perenne (LOLPE); details: Lolium perenne, post-emergence, 312 h; Application Rate 500 g/Ha; evaluated after 13 days; read-out: Control of weed species after post-emergence application, LOLPE (100=total damage to plant; 0=no damage to plant)
How it was run: as §1

[6] = tested on: Amaranthus palmeri (AMAPA); details: Amaranthus palmeri, post-emergence, 312 h; Application Rate 500 g/Ha; evaluated after 13 days; read-out: Control of weed species after post-emergence application, AMAPA (100=total damage to plant; 0=no damage to plant)
How it was run: as §1

[7] = tested on: Eleusine indica (ELEIN); details: Eleusine indica, post-emergence, 312 h; Application Rate 500 g/Ha; evaluated after 13 days; read-out: Control of weed species after post-emergence application, ELEIN (100=total damage to plant; 0=no damage to plant)
How it was run: as §1

[8] = tested on: Chenopodium album (CHEAL); details: Chenopodium album, post-emergence, 312 h; Application Rate 500 g/Ha; evaluated after 13 days; read-out: Control of weed species after post-emergence application, CHEAL (100=total damage to plant; 0=no damage to plant)
How it was run: as §1

[9] = tested on: Echinochloa crus-galli (ECHCG); details: Echinochloa crus-galli, post-emergence, 312 h; Application Rate 500 g/Ha; evaluated after 13 days; read-out: Control of weed species after post-emergence application, ECHCG (100=total damage to plant; 0=no damage to plant)
How it was run: as §1

Row | SMILES | pest or weed control at 500 g/ha [1] [%] | pest or weed control at 500 g/ha [2] [%] | pest or weed control at 500 g/ha [3] [%] | pest or weed control at 500 g/ha [4] [%] | pest or weed control at 500 g/ha [5] [%] | pest or weed control at 500 g/ha [6] [%] | pest or weed control at 500 g/ha [7] [%] | pest or weed control at 500 g/ha [8] [%] | pest or weed control at 500 g/ha [9] [%]
1 | CCOP(=O)(O)CC[n+]1ccc(-c2ncco2)cn1 [Compound A85] | 40 | 20 | 20 | 30 | 10 | 10 | 30 | 0 | 20
2 | O=C(O)CC[n+]1ccc(-c2nnc[nH]2)cn1 [Compound A37] | 10 | 10 | 30 | 20 | 0 | 30 | 10 | 50 | 10
3 | O=S(=O)([O-])CC[n+]1ccc(-c2nccs2)cn1 [Compound A1, 2-(4-thiazol-2-ylpyridazin-1-ium-1-yl)ethanesulfonate] | 100 | 50 | 70 | 50 | 90 | 100 | 50 | 70 | 60
4 | COC(=O)c1cccc(C[n+]2ccc(-c3ncco3)cn2)c1 [Compound A92] | 20 | 0 | 20 | 10 | 0 | 10 | 10 | 10 | 0
5 | O=C(O)CC[n+]1ccc(-c2csnn2)cn1 [Compound A139, 3-[4-(thiadiazol-4-yl)pyridazin-1-ium-1-yl]propanoic acid 2,2,2-trifluoroacetate] | 70 | 60 | 100 | 60 | 10 | 80 | 70 | 70 | 60
6 | O=C(O)c1cccc(C[n+]2ccc(-c3ncco3)cn2)c1 [Compound A104] | 50 | 60 | 30 | 10 | 10 | 40 | 20 | 20 | 50
7 | Cc1coc(-c2cc[n+](CC(=O)O)nc2)n1 [Compound A132] | 90 | 80 | 70 | 10 | 50 | 90 | 90 | 70 | 90
8 | COC(=O)C[n+]1ccc(-c2nc(C)co2)cn1 [Compound A133] | 20 | 0 | 0 | 10 | 0 | 0 | 10 | 0 | 10
9 | CC(C)(CC(=O)O)[n+]1ccc(-c2ncco2)cn1 [Compound A107] | 70 | 50 | 30 | 20 | 20 | 100 | 30 | 50 | 40
10 | O=C(O)CCC[n+]1ccc(-c2nccs2)cn1 [Compound A115] | 90 | 100 | 100 | 20 | 60 | 100 | 100 | 70 | 90
11 | CCOC(=O)c1coc(-c2cc[n+](CCC(=O)O)nc2)n1 [Compound A126] | 90 | 70 | 70 | 30 | 60 | 90 | 90 | 70 | 60
12 | Cn1ncc(-c2cc[n+](CCS(=O)(=O)[O-])nc2)n1 [Compound A6] | 60 | 70 | 20 | 10 | 60 | 90 | 60 | 40 | 60
13 | CS(=O)(=O)[N-]C(=O)C[n+]1ccc(-c2ncco2)cn1 [Compound A72] | 60 | 60 | 70 | 70 | 40 | 90 | 80 | 70 | 40
14 | Cc1nnc(-c2cc[n+](CCC(=O)O)nc2)s1 [Compound A98] | 90 | 100 | 90 | 40 | 80 | 100 | 80 | 90 | 70
15 | O=C(O)CC[n+]1ccc(-c2cnsc2)cn1 [Compound A62] | 10 | 0 | 40 | 20 | 0 | 0 | 0 | 20 | 0
16 | CC(C[n+]1ccc(-c2ncco2)cn1)NS(=O)(=O)[O-] (stereo not drawn) [Compound A89] | 90 | 60 | 100 | 30 | 60 | 100 | 70 | 90 | 60
17 | O=C(O)CC[n+]1ccc(-c2cnns2)cn1 [Compound A138] | 60 | 30 | 100 | 70 | 0 | 90 | 70 | 40 | 40
18 | O=C(O)CC[n+]1ccc(-c2ccno2)cn1 [Compound A96] | 40 | 80 | 100 | 80 | 70 | 100 | 80 | 90 | 30
